Experimental data as given in patent publication US7528149B2 (Janssen Pharmaceutica N.V., priority 1999, dated 2009).
Where two headings read alike, the source gives them in different places.

Assays:
Type in all cases: cell-based
[1] = system: Respiratory Syncytial Virus; experiment: In vitro screening for activity against Respiratory Syncytial Virus (tetrazolium-based colorimetric assay, protection against cytopathology in HeLa cells); settings: for SI (selectivity index, CC50 divided by IC50): CC50 (HeLa) / IC50 (RSV); for IC50: read-out: IC50 (antiviral activity)
Text: (§1) The percent protection against cytopathology caused by viruses (antiviral activity or IC50) achieved by tested compounds and their cytotoxicity (CC50) were both calculated from dose-response curves. The selectivity of the antiviral effect is represented by the selectivity index (SI), calculated by dividing the CC50 (cytotoxic dose for 50% of the cells) by the IC50 (antiviral activity for 50% of the cells).
(§2) Automated tetrazolium-based colorimetric assays were used for determination of IC50 and CC50 of test compounds. Flat-bottom, 96-well plastic microtiter trays were filled with 180 μl of Eagle's Basal Medium, supplemented with 5% FCS (0% for FLU) and mM Hepes buffer. Subsequently, stock solutions (7.8× final test concentration) of compounds were added in 45 μl volumes to a series of triplicate wells so as to allow simultaneous evaluation of their effects on virus- and mock-infected cells. Five five-fold dilutions were made directly in the microtiter trays using a robot system. Untreated virus controls, and HeLa cell controls were included in each test. Approximately 100 TCID50 of Respiratory Syncytial Virus was added to two of the three rows in a volume of 50 μl. The same volume of medium was added to the third row to measure the cytotoxicity of the compounds at the same concentrations as those used to measure the antiviral activity. After two hours of incubation, a suspension (4×10^5 cells/ml) of HeLa cells was added to all wells in a volume of 50 μl. The cultures were incubated at 37° C. in a 5% CO2 atmosphere. Seven days after infection the cytotoxicity and the antiviral activity was examined spectrophotometrically. To each well of the microtiter tray, 25 μl of a solution of MTT (3-(4,5-dimethylthiazol-2-yl)-2,5-diphenyltetrazolium bromide) was added. The trays were further incubated at 37° C. for 2 hours, after which the medium was removed from each cup. Solubilization of the formazan crystals was achieved by adding 100 μl 2-propanol. Complete dissolution of the formazan crystals were obtained after the trays have been placed on a plate shaker for 10 min. Finally, the absorbances were read in an eight-channel computer-controlled photometer (Multiskan MCC, Flow Laboratories) at two wavelengths (540 and 690 nm). The absorbance measured at 690 nm was automatically subtracted from the absorbance at 540 nm, so as to eliminate the effects of non-specific absorption.

[2] = Cytotoxicity in mock-infected HeLa cells (tetrazolium-based colorimetric assay); settings: human
Text: as §1, §2

[3] = system: HeLa cells; experiment: as above; settings: human, 7 days
Text: as §1, §2

[4] = human respiratory syncytial virus, HeLa, 168 h
[5] = mock-infected HeLa cells, MTT, seven days, read-out: CC50 (cytotoxic dose for 50% of the cells)
[6] = CC50 (cytotoxic dose for 50% of the cells)

| Compound | SI (selectivity index, CC50 divided by IC50) [1] | IC50 [1, 4] [nM] | CC50 at 7 days [2, 5] [nM] | also measured |
| --- | --- | --- | --- | --- |
| CCOC(c1cccc(Br)n1)n1c(NC2CCN(CC(N)C(C)C)CC2)nc2c(C)cccc21 (racemic) [Compound 87, monohydrate] | 31623 | 0.32 | 10100 |  |
| COCCOC(c1cccc(C)n1)n1c(NC2CCN(CC(N)C(C)C)CC2)nc2c(C)cc(Cl)cc21.Cl.Cl.Cl.O.O.O (stereo not drawn) [Compound 88, N-[1-(2-amino-3-methylbutyl)-4-piperidinyl]-6-chloro-1-[(2-methoxyethoxy)(6-methyl-2-pyridinyl)methyl]-4-methyl-1H-benzimidazol-2-amine trihydrochloride trihydrate] | 10000 | 2 | 20000 |  |
| CCOC(c1cccc(Br)n1)n1c(NC2CCN(CC(N)C(C)C)CC2)nc2ccccc21 (racemic) [Compound 10, (±)-N-[1-(2-amino-3-methylbutyl)-4-piperidinyl]-1-[(6-bromo-2-pyridinyl)-ethoxymethyl]-1H-benzimidazol-2-amine] | 63096 |  |  | IC50 ([1]; human respiratory syncytial virus, HeLa, 168 h, RSV approx. 100 TCID50, HeLa cells, MTT read seven days after infection): 0.6 nM; CC50 at 7 days [2, 6]: 37900 nM |
| Cc1cccc(C(OCCO)n2c(NC3CCN(CCN)CC3)nc3ccccc32)n1 (racemic) [Compound 13, monohydrate] | >7943 | 12.6 | > 100000 |  |
| CCOC(c1nc(C)ccc1OCc1ccccc1)n1c(NC2CCN(CCN)CC2)nc2ccccc21.Cl.Cl.Cl.O.O (racemic) [Compound 11, (±)-N-[1-(2-aminoethyl)-4-piperidinyl]-1-[ethoxy[6-methyl-3-(phenylmethoxy)-2-pyridinyl]-methyl]-1H-benzimidazol-2-amine trihydrochloride dihydrate] | 79 | 126 | 9950 |  |
| CCOC(c1cccc(C)n1)n1c(NC2CCN(CC(N)C(C)C)CC2)nc2ccccc21 (stereo not drawn) [Compound 58] | 1585 |  |  | IC50 ([1]; RSV approx. 100 TCID50, HeLa cells, MTT read seven days after infection): 50.1 nM; CC50 [3]: 79400 nM |
| CCOC(c1cccc(C)n1)n1c(NC2CCN(CC(N)C(C)C)CC2)nc2ccccc21 [Compound 67, [(A)(S)]-N-[1-(2-amino-3-methylbutyl)-4-piperidinyl]-1-[ethoxy(6-methyl-2-pyridinyl)methyl]-1H-benzimidazol-2-amine monohydrate] |  |  |  | SI (selectivity index, CC50 divided by IC50) ([1]; monohydrate): 15849; IC50 ([1]; RSV approx. 100 TCID50, HeLa cells, MTT read seven days after infection, monohydrate): 4 nM; CC50 at 7 days [2, 6]: 63400 nM |
